In patent US20250257069A1, “JAK INHIBITOR ANALOGS, FORMULATIONS, AND USES THEREOF” (THE REGENTS OF THE UNIVERSITY OF MICHIGAN, priority 2022, published 2025):
Read-outs that look alike come from different tables or passages of the source.

Tests used:
SET-2 cells = assay: Anti-proliferative assay in SET-2 cells (CellTiter 96 Aqueous); type: cell-based, Human; details: 3 days
Description: (§1) Cell Culture and anti-proliferative assay. […] Cells were incubated at 37° C. in a humidified atmosphere of 5% CO2. Cells were seeded into 96-well culture plates at the density of approximately 8000 cells per well and treated with various concentrations of compounds for 3 days in final volumes of 200 μL. Upon end point, cells were treated using CellTiter 96 Aqueous Assay Reagents (Promega Corporation, Madison, USA) according to the provider's instruction. Briefly, MITS and PMS solution were thawed and mixed (20:1, v/v) before use and pipet appropriate amount of the mixed solution into each well of the 96 well assay plates. The plates were incubated for 1-4 hours at 37° C. in a humidified atmosphere of 5% CO2. The absorbance at 490 nm was recorded using CYTATION 5 imaging reader (BioTek, VT, USA). IC50 values were calculated using percentage of growth versus untreated control.

HEL 92.1.7 cells = assay: Anti-proliferative assay in HEL cells (CellTiter 96 Aqueous); type: cell-based, Human; details: 3 days
Description: as §1

DSS-induced colitis [1] = assay: DSS-induced colitis in mice; type: in vivo, C57BL/6 female mice; details: oral; for improvement of DAI score or disease severity (in words): 1 mg/kg; for mice that developed moderate colitis / mice that developed severe colitis / mice that developed severe colitis with gross bleeding: day 5, n=10
Description: In vivo efficacy of MMT3-72 in treatment of DSS-induced colitis in mice: C57BL/6 female mice 6-8 weeks purchased from Charles River Laboratories and were randomly divided into different treatment groups. Acute colitis was induced by administering 3% DSS (MP Biomedicals, CA, USA) in distilled water continuously for 5 days and the control group received pure water (Snider, et al., Methods Mol Biol 2016, 1438, 245-254). […] Drugs were administered every other day orally by gavage in volume of 0.1 mL/10 g body weight. During the model establishment, body weight, stool consistency and gross blood in feces were monitored and recorded daily. After 5 days, mice were sacrificed and blood was collected. Serum was obtained by centrifugation and stored at −80° C. for further immune assay. Colon was excised and the length was measured.
To evaluate the efficacy of MMT3-72 in the treatment of UC in vivo, a colitis model was established in mice using dextran sodium sulfate (DSS). DSS in drinking water could trigger colitis in mice. The DSS-induced colitis model is widely used because of its relatively easy administration and high similarity with human UC. In this study, mice treated with 3% DSS water developed symptoms of colitis such as bloody stools and diarrhea on day 5. Disease activity index (DAI) was monitored for the severeness of disease in mice: Normal stool consistency with negative hemoccult: score 0; Soft stools with positive hemoccult: score 1; Very soft stools with traces of blood: score 2; Watery stools with visible rectal bleeding: score 3. […]. […].

TYK2 = TYK2 (Homo sapiens (Human), UniProt P29597); assay: Kinase-Glo Max TYK2 kinase assay (BPS Bioscience kit); type: biochemical; details: purified enzyme, 0.01-10,000 nM
Chain of TYK2 (P29597 whole entry): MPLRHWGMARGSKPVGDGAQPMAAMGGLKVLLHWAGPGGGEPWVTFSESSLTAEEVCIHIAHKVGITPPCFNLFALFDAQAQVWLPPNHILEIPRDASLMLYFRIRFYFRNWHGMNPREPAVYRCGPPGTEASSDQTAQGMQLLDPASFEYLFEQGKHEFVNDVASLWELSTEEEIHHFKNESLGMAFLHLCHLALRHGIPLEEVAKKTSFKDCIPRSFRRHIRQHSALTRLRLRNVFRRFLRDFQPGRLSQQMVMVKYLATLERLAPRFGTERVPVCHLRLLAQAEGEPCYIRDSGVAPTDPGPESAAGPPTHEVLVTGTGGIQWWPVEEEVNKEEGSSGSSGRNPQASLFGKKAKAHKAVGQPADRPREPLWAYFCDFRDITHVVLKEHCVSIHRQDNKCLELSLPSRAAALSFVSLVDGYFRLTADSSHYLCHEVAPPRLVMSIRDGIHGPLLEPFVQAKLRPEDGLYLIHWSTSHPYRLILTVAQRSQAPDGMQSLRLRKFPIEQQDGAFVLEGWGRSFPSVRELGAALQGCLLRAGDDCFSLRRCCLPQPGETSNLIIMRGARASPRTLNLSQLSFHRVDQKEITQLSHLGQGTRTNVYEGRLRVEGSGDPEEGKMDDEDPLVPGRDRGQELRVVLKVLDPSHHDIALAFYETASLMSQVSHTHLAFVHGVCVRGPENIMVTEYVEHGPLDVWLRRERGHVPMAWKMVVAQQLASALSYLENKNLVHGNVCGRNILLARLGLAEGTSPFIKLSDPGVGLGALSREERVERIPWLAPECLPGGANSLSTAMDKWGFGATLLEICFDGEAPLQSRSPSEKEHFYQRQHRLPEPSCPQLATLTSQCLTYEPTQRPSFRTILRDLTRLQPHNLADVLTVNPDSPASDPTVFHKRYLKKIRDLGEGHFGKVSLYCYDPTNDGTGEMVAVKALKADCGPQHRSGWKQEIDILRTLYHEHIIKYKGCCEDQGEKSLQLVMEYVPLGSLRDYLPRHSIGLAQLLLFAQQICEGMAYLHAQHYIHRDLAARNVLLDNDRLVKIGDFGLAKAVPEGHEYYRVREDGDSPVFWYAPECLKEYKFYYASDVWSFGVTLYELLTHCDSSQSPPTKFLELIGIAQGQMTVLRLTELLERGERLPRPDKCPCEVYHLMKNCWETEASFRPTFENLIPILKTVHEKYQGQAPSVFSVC
Description: (§2) In vitro activity to inhibit JAK enzymes: JAK1, JAK2, JAK3, TYK2 assay kits were obtained from BPS Bioscience (San Diego, CA, USA). The assays were conducted according to manufacturer's protocols in 96-well microplates. Briefly, master mixtures (25 μL per well) were prepared for JAK1 and TYK2 assays (6 μL 5× kinase assay buffer+1 μL ATP (500 μM)+5 μL×10 IRS1-tide+13 μL distilled water) or for JAK2 and JAK3 assays (6 μl 5× kinase assay buffer+1 μl ATP (500 μM)+1 μl PTK substrate Poly(Glu:Tyr 4:1) (10 mg/mL)+17 μL distilled water), respectively. […] The reaction mixtures were incubated at 30° C. for 40 minutes. Finally, 50 μL of Kinase-Glo Max reagent (Promega, Madison, WL USA) was added to each well and the reactions were performed in darkness for 15 minutes at room temperature. The luminescence of the reaction mixture was read on a Synergy 2 microplate reader (Biotek).

JAK1 = JAK1 (Homo sapiens (Human), UniProt P23458); assay: Kinase-Glo Max JAK1 kinase assay (BPS Bioscience kit); type: biochemical; details: purified enzyme, 0.01-10,000 nM
Chain of JAK1 (P23458 whole entry): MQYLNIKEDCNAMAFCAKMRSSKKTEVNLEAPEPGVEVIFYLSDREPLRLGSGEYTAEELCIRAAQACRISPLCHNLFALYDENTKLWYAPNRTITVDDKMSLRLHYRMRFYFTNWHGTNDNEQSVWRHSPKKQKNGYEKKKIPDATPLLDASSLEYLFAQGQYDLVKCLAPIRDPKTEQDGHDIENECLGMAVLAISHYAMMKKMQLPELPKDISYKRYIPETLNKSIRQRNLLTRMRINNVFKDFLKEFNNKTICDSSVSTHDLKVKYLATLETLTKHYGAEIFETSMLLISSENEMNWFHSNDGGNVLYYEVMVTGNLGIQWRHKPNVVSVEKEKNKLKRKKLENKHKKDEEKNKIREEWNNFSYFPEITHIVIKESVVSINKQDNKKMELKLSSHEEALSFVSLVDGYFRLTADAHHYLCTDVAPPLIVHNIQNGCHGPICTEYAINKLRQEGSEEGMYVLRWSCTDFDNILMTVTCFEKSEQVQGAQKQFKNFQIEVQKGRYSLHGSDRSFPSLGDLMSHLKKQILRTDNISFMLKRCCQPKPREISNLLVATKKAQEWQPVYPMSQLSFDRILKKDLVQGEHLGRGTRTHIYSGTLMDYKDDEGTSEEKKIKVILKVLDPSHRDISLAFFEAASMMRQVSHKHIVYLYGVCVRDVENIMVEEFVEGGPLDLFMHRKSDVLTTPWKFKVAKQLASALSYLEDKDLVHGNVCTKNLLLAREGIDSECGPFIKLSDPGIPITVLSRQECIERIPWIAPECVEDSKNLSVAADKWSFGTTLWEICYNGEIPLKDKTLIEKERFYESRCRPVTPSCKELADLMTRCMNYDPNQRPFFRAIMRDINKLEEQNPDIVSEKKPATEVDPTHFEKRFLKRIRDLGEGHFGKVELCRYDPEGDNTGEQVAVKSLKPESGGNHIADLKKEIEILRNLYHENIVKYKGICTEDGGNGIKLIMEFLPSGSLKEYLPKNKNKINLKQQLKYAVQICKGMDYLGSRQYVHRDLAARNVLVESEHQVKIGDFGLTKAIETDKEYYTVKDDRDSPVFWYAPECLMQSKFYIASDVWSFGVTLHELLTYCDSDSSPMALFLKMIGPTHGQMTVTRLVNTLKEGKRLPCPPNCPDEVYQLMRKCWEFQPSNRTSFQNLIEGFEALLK
Description: as §2

JAK2 = JAK2 (Homo sapiens (Human), UniProt O60674); assay: Kinase-Glo Max JAK2 kinase assay (BPS Bioscience kit); type: biochemical; details: purified enzyme, 0.01-10,000 nM
Chain of JAK2 (O60674 whole entry): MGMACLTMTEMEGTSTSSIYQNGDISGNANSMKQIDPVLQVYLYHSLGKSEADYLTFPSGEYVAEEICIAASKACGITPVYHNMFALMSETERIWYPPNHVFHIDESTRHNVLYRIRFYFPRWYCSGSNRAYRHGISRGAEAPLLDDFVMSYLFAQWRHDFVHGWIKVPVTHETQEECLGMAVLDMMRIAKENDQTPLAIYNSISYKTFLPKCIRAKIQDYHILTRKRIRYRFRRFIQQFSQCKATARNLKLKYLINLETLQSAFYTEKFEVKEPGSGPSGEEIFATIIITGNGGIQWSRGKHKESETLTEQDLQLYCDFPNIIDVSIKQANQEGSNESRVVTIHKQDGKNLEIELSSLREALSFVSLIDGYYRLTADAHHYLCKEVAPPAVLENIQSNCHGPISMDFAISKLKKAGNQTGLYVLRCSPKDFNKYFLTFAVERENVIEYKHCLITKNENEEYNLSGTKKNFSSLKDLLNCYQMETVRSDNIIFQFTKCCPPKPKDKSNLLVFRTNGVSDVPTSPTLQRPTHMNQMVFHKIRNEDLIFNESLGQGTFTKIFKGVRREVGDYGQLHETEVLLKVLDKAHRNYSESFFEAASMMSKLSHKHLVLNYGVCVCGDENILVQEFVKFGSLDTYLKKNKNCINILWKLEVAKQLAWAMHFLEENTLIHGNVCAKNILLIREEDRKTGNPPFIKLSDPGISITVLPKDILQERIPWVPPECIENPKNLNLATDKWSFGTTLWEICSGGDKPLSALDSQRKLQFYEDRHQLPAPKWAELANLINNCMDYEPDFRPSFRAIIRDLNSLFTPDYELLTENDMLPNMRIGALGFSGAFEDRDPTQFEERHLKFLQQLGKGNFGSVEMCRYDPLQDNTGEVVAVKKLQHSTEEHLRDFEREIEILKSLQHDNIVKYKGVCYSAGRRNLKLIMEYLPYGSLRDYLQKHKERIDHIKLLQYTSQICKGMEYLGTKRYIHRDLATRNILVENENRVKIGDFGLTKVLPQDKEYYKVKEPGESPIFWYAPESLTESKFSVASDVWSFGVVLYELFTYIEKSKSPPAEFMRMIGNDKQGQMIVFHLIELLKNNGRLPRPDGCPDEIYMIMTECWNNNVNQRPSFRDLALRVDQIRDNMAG

[2] = In-vivo metabolite identification in mouse plasma, colon and feces; details: 6 h after oral 10 mg/kg MMT3-72
Description: Activation of MMT73-72 and Metabolite identification: In-vivo metabolite identification was conducted using mouse plasma, colon and feces samples that collected at 6 h after oral administration of MMT3-72 (10 mg/kg), Liquid chromatography tandem mass spectrometry was employed to separate and identify the possible metabolites. The LC-MS/MS method consisted of a Shimadzu LC-20AD HPLC system (Kyoto, Japan). Chromatographic separation of MMT3-72 and its metabolites was achieved using a Waters XBridage reverse phase C18 column (15 cm×2.1 mm I.D., packed with […]). A high resolution AB Sciex X500R QTOF mass spectrometer (AB Sciex, Farmingham, USA) in the positive-ion Information Dependent Acquisition (IDA) mode was used for confirmation of accurate molecular weight. The mass range was recorded from m/z 100 to 1000 Da. The collision energy was set to 50 V for TOF MSMS. Data was collected with software SCIEX OS, and then processed with software Metabolite Pilot 2.0 (AB Sciex, Farmingham, USA).

[3] = Pharmacokinetics in mice after oral MMT3-72 (LC-MS/MS of plasma, GI tissues, GI content); type: in vivo, C57BL/6 female mice
Description: LC-MS analysis of MMT3-72and MMT3-72-M2 in biological samples: MMT3-72 and MMT3-72-M2 concentrations in plasma (ng/mil) and tissues (ng/g) were determined by the LC-MS/MS method that was developed and validated for this study. The HPLC method was conducted on a Shimadzu LC-20AD HPLC system (Kyoto, Japan), and chromatographic separation was achieved using a Waters XBridage reverse phase C18 column (5 cm×2.1 mm I.D., packed with 3.5 μm). The flow rate of gradient elution was 0.4 ml/min with mobile phase A (0.1% formic acid in purified deionized water) and mobile phase B (0.1% formic acid in acetonitrile). An AB Sciex QTrap 4500 mass spectrometer (AB Sciex, Framingham, USA) in the positive-ion multiple reaction monitoring (MRM) mode was used for detection. Protonated molecular ions and the respective ion products were monitored at the transitions of m/z 811.3>737.4 for MMT3-72 and 472.3>416.0 for the MMT3-72-M2. Data was processed with software Analyst (version 1.6).
Pharmacokinetics in mice. Briefly, C57BL/6 female mice were orally dosed with 10 mg/kg MMT3-72. At 0.5, 2, 4, 12, 24 h, mice were sacrificed, and blood samples were collected by drawing directly from the heart Intestinal tissue samples were collected and homogenized in PBS to 10% homogenate. The contents of small and large intestine were collected and homogenized in PBS. Afterwards, concentrations of MMT3-72, MMT3-72-M2,5-ASA in the plasma, intestinal tissues, and intestinal content were determined by liquid chromatography-tandem mass spectrometry (LC-MS/MS) analysis using method described above.

JAK3 = JAK3 (Homo sapiens (Human), UniProt P52333); assay: Kinase-Glo Max JAK3 kinase assay (BPS Bioscience kit); type: biochemical; details: purified enzyme, 0.01-10,000 nM
Chain of JAK3 (P52333 whole entry): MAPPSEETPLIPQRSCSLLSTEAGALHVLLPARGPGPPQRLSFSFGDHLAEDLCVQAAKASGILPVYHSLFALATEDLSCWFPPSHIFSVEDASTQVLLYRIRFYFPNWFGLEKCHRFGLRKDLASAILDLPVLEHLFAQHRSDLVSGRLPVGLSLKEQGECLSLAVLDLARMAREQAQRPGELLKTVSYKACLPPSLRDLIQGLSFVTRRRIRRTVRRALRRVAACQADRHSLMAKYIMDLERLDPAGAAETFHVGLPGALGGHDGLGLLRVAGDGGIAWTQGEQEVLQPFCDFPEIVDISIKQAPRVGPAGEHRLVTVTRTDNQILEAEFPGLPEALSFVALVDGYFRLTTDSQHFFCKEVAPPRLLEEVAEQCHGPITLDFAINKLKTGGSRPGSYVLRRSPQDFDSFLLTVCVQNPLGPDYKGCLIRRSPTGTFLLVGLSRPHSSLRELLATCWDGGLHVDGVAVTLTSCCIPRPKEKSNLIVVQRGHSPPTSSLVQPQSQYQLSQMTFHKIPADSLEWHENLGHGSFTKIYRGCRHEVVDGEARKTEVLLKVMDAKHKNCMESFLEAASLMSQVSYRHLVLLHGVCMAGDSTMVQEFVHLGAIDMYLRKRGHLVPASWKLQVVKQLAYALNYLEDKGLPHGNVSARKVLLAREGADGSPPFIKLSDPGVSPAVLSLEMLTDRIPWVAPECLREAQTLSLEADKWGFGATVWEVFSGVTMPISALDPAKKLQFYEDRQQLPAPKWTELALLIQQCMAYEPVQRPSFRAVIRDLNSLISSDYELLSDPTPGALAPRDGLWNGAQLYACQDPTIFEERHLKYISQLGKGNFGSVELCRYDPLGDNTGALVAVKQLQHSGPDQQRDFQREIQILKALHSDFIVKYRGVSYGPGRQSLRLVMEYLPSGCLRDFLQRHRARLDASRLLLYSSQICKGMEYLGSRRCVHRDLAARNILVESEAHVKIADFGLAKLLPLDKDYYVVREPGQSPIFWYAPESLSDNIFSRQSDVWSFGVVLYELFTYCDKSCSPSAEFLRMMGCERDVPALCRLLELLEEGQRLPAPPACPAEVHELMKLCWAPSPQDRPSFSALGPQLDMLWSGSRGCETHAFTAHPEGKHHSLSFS

DSS-induced colitis [4] = assay: H&E staining of colon tissues in DSS-induced colitis model; type: in vivo, mice; details: 5, 10 mg/kg
Description: H&E Staining of Colon tissues: After dissecting and transecting the colon, a feeding needle and 5 ml syringe were used to intubate and flush the colon with ice-cold PBS until the stool was flushed out. Scissors were used to incise longitudinally from distal to proximal end of the colon and the colon tissue could then be expanded as a flat sheet. The edge of the distal colon was grasped using a pair of forceps and the colon tissue was rotated into a swiss roll. The roll was firmly grasped and transected using a 27 G ½ needle. […] The Swiss roll was then paraffin-embedded, sectioned, mounted, and stained with H&E to determine the extent of damage to the colon from the distal (inside end) to the proximal (outside end).

[5] = following a single oral dose; cited from earlier work

## Deucravacitinib
SET-2 cells
  IC50: 7380 nM
HEL 92.1.7 cells
  IC50: ~347000 nM

## C[C@@H]1CCN(C(=O)CC#N)C[C@@H]1N(C)c1ncnc2[nH]ccc12 [Tofacitinib, reference compound]
DSS-induced colitis [1]
  improvement of DAI score or disease severity (in words): did not improve DAI score or disease severity
DSS-induced colitis [1]; 5 mg/kg
  improvement of DAI score (in words): did not show any improvement of DAI score
  mice that developed moderate colitis: 80%
  mice that developed severe colitis: 40%
DSS-induced colitis [1]; 10 mg/kg
  improvement of DAI score (in words): showed improvement of DAI score
  recovery of colon length from DSS-induced colitis: recovered the colon length
  mice that developed moderate colitis: 20%
  mice that developed severe colitis with gross bleeding: 10%

## N#CC[C@H](C1CCCC1)n1cc(-c2ncnc3[nH]ccc23)cn1 [Ruxolitinib]
SET-2 cells; Homo sapiens, 72 h
  IC50: ~145 nM
HEL 92.1.7 cells; Homo sapiens, 72 h
  IC50: 114 nM

## Cc1cnc(Nc2ccc(OCCO)cc2)nc1Nc1cccc(S(=O)(=O)NC(C)(C)C)c1 [MMT3-72-M2, N-(tert-butyl)-3-((2-((4-(2-hydroxyethoxy)phenyl)amino)-5-methylpyrimidin-4-yl)amino)benzenesulfonamide]
TYK2
  IC50: 55.2 nM
JAK1
  IC50: 2 nM
JAK2
  IC50: 16.3 nM
[2]
  detection in plasma, colon tissue and feces: only detected in the colon tissues and the feces with low level in the plasma
SET-2 cells; Homo sapiens, 72 h
  IC50: 332 nM
[3]; female, C57BL/6, mouse, colon tissue and small intestinal tissues, oral 10 mg/kg MMT3-72, read-out: Cmax in colon tissue and small intestinal tissues
  Cmax: > 1500 ng/g
[3]; female, C57BL/6, mouse, plasma, oral 10 mg/kg MMT3-72, read-out: Cmax in plasma
  Cmax: 8 ng/mL
[3]; female, C57BL/6, mouse, small and large intestine tissues, oral 10 mg/kg MMT3-72, at 24 hrs, read-out: Cmin in small and large intestine tissues
  concentration at 24 h: 88.5 ng/mL
[3]; oral 10 mg/kg MMT3-72
  concentration in colon content relative to small intestine content: 10 fold
  time after which undetectable in plasma: 4 h
JAK3
  IC50: 701 nM
HEL 92.1.7 cells; Homo sapiens, 72 h
  IC50: 2590 nM

## CC[C@@H]1CN(C(=O)NCC(F)(F)F)C[C@@H]1c1cnc2cnc3[nH]ccc3n12 [Upadacitinib]
SET-2 cells; Homo sapiens, 72 h
  IC50: 69.6 nM
HEL 92.1.7 cells; Homo sapiens, 72 h
  IC50: 1010 nM

## Cc1cnc(Nc2ccc(OCCOc3ccc(/N=N/c4ccc(C(=O)NCCC(=O)O)cc4)cc3C(=O)O)cc2)nc1Nc1cccc(S(=O)(=O)NC(C)(C)C)c1 [MMT3-72, (E)-2-(2-(4-((4-((3-(N-(tert-butyl)sulfamoyl)phenyl)amino)-5-methylpyrimidin-2-yl)amino)phenoxy)ethoxy)-5-((4-((2-carboxyethyl)carbamoyl)phenyl)diazenyl)benzoic acid]
TYK2
  IC50: 2980 nM
JAK1
  IC50: 199 nM
DSS-induced colitis [4]
  epithelial loss and immune cell infiltration in colon tissue (H&E): reduced epithelium disruption and infiltration of immune cells in colon tissues
DSS-induced colitis [4]; listed as MMT3972
  epithelial loss and immune cell infiltration in colon tissue (H&E): reduced epithelial loss and decreased infiltration of immune cells
JAK2
  IC50: 448 nM
[2]
  detection in plasma, colon tissue and feces: only detected in the feces with no detection in the plasma and the colon tissues
SET-2 cells; Homo sapiens, 72 h
  IC50: 515 nM
[3]; female, C57BL/6, mouse, GI content (stomach, small intestine and colon content), oral 10 mg/kg MMT3-72, read-out: Cmax in GI content (stomach, small intestine and colon content)
  Cmax: > 50000 ng/g
[3]; oral 10 mg/kg MMT3-72, 0-24 hrs
  detection in small intestine tissues, colon tissue or systemic circulation: not detected
DSS-induced colitis [1]
  improvement of DAI score or disease severity (in words): did not improve DAI score or disease severity
DSS-induced colitis [1]; 5 mg/kg
  improvement of DAI score versus DSS induced colitis: 5 fold
  mice that developed moderate colitis: 10%
  mice that developed severe colitis: no mouse developed severe colitis
DSS-induced colitis [1]; 10 mg/kg
  improvement of DAI score in DSS-induced colitis model: 10 fold
  recovery of colon length from DSS-induced colitis: recovered the colon length
  mice that developed moderate colitis: no mice
  mice that developed severe colitis with gross bleeding: no mice
JAK3
  IC50: 6820 nM
HEL 92.1.7 cells; Homo sapiens, 72 h
  IC50: 5590 nM

## Cc1cnc(Nc2ccc(OCCN3CCCC3)cc2)nc1Nc1cccc(S(=O)(=O)NC(C)(C)C)c1 [Fedratinib]
[5]
  portion excreted in feces as unchanged drug: 23%
  portion excreted to GI tract in feces: 77%
SET-2 cells; Homo sapiens, 72 h
  IC50: 210 nM
HEL 92.1.7 cells; Homo sapiens, 72 h
  IC50: 904 nM

## COCCOCc1cc(Nc2ncc(C)c(Nc3cccc(S(=O)(=O)NC(C)(C)C)c3)n2)ccc1OCCN1CCCC1 [MMT3-83]
SET-2 cells
  IC50: 645 nM
HEL 92.1.7 cells
  IC50: 2040 nM
